{
  "source": "patent US20210236664A1",
  "about": "“ALPHA PARTICLE FORMULATIONS FOR TREATMENT OF SOLID TUMORS” (The Johns Hopkins University, priority 2018, published 2021)",
  "key": {"Hep G2 tumor": {"test_system": "Hep G2 tumor", "assay": "Tumor retention after intra-tumoral injection in hepatocellular carcinoma mouse model", "type": "in vivo, mice", "details": "n=3", "experimental": "^111In-DOTA-tetradecylamine(TDA) was synthesized with a radiolabeling yield >95%. The retention of ^111In-DOTA-TDA within a hepatocellular carcinoma mouse model was evaluated; Hep G2 tumor-bearing SCID mice (24 hours, n=3) and NCG mice (48 hours, n=3) following intra-tumoral injections of ^111In-DOTA-TDA alone or as a Lipiodol emulsion (FIG. 6)."}, "[1]": {"assay": "Octanol partition coefficient", "excerpt": "Partition coefficients will be as previously described with some minor modifications. Decristoforo, C., et al., 2008. Octanol and saline (pH=7.4) will be used to assess the […] of the proposed compounds. Briefly, the radiolabeled ^111In- and ^225Ac-labeled DOTA(GA)-alkyl chelates will be vortexed with octanol and saline then centrifuged to separate layers. Aliquots (3) from each layer will be removed and counted. The […] will be determined using the following equations:\nPoct/saline=Log([activity]octanol/[activity]saline).\nA greater than 95% purity was obtained following purification with a Seppak."}, "[2]": {"test_system": "castration resistant prostate cancer", "details": "castration resistant prostate cancer patients; cited from earlier work"}, "bladder cancer": {"test_system": "bladder cancer", "details": "survive >300 d following treatment; cited from earlier work"}},
  "data": [
    {"compound": "^111In-DOTA-tetradecylamine [^111In-DOTA-TDA]", "values": [
      {"measurement": "uptake within the tumor", "setting": "Hep G2 tumor; 24 hours, Hep G2 tumor-bearing SCID mice", "value": "103±65.0", "unit": "% ID/g"},
      {"measurement": "uptake within the tumor", "setting": "Hep G2 tumor; 48 hours, Hep G2 tumor-bearing NCG mice", "value": "20.0±15.9", "unit": "% ID/g"},
      {"measurement": "Log Poct", "setting": "[1]", "value": "1.57±0.005"}
    ]},
    {"compound": "[Cl][223Ra][Cl]", "note": "[XOFIGO®, Radium-223 Dichloride]", "values": [
      {"measurement": "increased survival benefit", "setting": "[2]", "value": 2.8, "unit": "month"}
    ]},
    {"compound": "CO[C@@]12[C@H](COC(N)=O)C3=C(C(=O)C(C)=C(N)C3=O)N1C[C@@H]1N[C@@H]12", "note": "[mitomycin C]", "values": [
      {"measurement": "survival of mice", "setting": "bladder cancer", "value": 40, "unit": "%"}
    ]}
  ]
}
